In PMC5164911, “Comparative Analysis of the Interaction between Different Flavonoids and PDIA3” (Oxidative Medicine and Cellular Longevity, 2016):

Tests used:
[1] = biological target: T1, PDIA3 (Homo sapiens, UniProt P30101); test: Fluorescence quenching titration of PDIA3 intrinsic fluorescence; assay type: binding; settings: for Stern-Volmer constant (K SV): 0.5∗10^−6 M PDIA3 in reduced conditions, pH 7.4, 25°C, flavonoid 0 to 10∗10^−6 M, mean and standard deviation; for bimolecular quenching rate constant (K q): K SV = K q τ0 with τ0 of the order of 10^−8 s; for bimolecular quenching rate constant (K q) / Kd / binding constant (K b): reduced PDIA3, pH 7.4, 25°C; for Kd: K d = 1/K b, read-out: dissociation constant (K d); for binding constant (K b): equation of Bi et al., reiterative calculation of Sun et al.
T1 construct: made in house; host or cells: E. coli BL21 (vector pET21)
T1 sequence (P30101 25-505): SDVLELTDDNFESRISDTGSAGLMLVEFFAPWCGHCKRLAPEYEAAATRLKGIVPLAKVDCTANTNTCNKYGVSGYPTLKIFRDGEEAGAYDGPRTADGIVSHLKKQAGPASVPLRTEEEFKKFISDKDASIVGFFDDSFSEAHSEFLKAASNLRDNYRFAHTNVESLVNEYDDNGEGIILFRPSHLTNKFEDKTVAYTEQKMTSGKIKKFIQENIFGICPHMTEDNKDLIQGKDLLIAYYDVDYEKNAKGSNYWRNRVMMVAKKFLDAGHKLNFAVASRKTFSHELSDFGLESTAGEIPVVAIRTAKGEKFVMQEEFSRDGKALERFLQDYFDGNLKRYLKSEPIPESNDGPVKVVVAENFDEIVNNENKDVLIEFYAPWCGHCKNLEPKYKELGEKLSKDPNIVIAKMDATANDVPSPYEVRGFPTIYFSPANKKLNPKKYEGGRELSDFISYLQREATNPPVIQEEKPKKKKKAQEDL
Experimental: Quantitative analysis of the interaction between individual flavonoids and PDIA3 was performed by fluorimetric titration. […] Briefly, solution of PDIA3 (0.5 μM) or a and a′ domains (1 μM) in phosphate buffered saline (PBS) containing DTT 0.1 mM and EDTA 0.2 mM were titrated in quartz cuvette by stepwise additions, at 5 min time intervals, of individual flavonoid solution (1 mM in PBS/ethanol 50 : 50 v/v freshly prepared from a 20 mM stock solution in DMSO). […] To minimize the inner-filter effect we limited the highest concentration reached in the titration test up to 10 μM. All experiments were carried out at 25°C. Each spectrum was the mean of three repeated scans. Fluorescence spectra of appropriate blanks (flavonoids without proteins) were recorded under the same experimental conditions and subtracted from the corresponding flavonoid-protein system to correct the fluorescence background.
Quenching analysis was performed on PDIA3 (0.5 μM), in the reduced form, by adding stepwise increasing concentration of each molecule and recording the protein fluorescence spectra. For some flavonoids the analysis was extended to isolate a′ domain (1 μM), always in the reduced form. […] For each ligand molecule the Stern-Volmer quenching constant was obtained by linear regression of plots of F 0/F versus [L].
The Stern-Volmer quenching constant may be expressed as K SV = K q τ 0, where K q is the quencher rate coefficient and τ 0 is the average lifetime of the emissive excited state of the protein in the absence of the quencher.
The number of binding sites (n) and the binding constant (K b) were obtained by plotting log((F 0 − F)/F) versus log(1/([L t] − n(F 0 − F)[P t]/F 0)) using the reiterative calculation process described by Sun et al., assuming a similar affinity for each binding site.

[2] = biological target: T1, PDIA3; test: Differential scanning fluorimetry (thermal stability, SYPRO Orange); assay type: binding; settings: for Increase in melting temperature (T m) of PDIA3: 50 μM flavonoid, reduced PDIA3 1 μM; for Effect on PDIA3 stability (T m): flavonoid up to 50 μM, mainly at the highest concentration
Experimental: Protein stability was tested by the fluorescence-based thermal stability assay or differential scanning fluorimetry (DSF) developed by Pantoliano and coworkers. DSF records the fluorescence emission signal from the binding of a dye (SYPRO orange) to the exposed hydrophobic patches upon protein unfolding. Fluorescence measurements were performed using a CFX96 Connect RT-PCR instrument (BioRad). 18 μl aliquots of protein solution (1 μM), freshly diluted in Tris Buffered saline (50 mM TrisHCl, pH 8.0, 150 mM NaCl) containing 0.1 mM DTT, 0.2 mM EDTA, and 1 : 1000 dilution of SYPRO Orange (50 mM stock solution in DMSO), were distributed in a 96-well plate. Sample wells were addition of increasing concentration (up to 50 μM) of individual flavonoid by adding 2 μl of 10-fold concentrated stock solutions freshly prepared. As control, the protein solution was added with 2 μl of the dilution buffer. A melting point analysis was recorded increasing the temperature from 20 to 95°C with an increment of 0.5°C and reading, at each temperature, the fluorescence in fluorescence resonance energy transfer mode (FRET). Each measure was the average of three sample wells reading and each DSF experiment was repeated at least three times. To calculate T m values, DSF data from the melting curve were exported and fitted to Boltzman equation using GraphPad software. Effect of flavonoids was evaluated comparing the T m values in presence and absence of each molecule.

[3] = biological target: T1, PDIA3; test: Disulfide reductase activity with DiE-GSSG fluorogenic probe; assay type: biochemical; settings: DiE-GSSG substrate; for Inhibition of disulfide reductase (redox) activity: 20 μM flavonoid (Figure 7)
Experimental: Disulfide reductase activity of ERp57 was monitored by sensitive fluorescent assay using dieosin glutathione disulfide (DiE-GSSG) as fluorogenic probe. DiE-GSSG was synthesized by the reaction of eosin isothiocyanate with oxidized glutathione (GSSG) according to the method of Raturi and Mutus with some modifications. DiE-GSSG concentration was determined spectrophotometrically (ℇ 525 = 88,000 M^-1 cm^−1). Disulfide reductase activity was assayed in a reaction buffer containing 2 mM EDTA, 150 nM DiE-GSSG, and 5 μM DTT in PBS. A 20 μl aliquot of a stock solution of PDIA3 (1 μM) was added to the reaction mixture and DiE-GSSG reduction was monitored at 545 nm with excitation at 520 nm, at 25°C with continuous stirring. Reductase activity was calculated as the initial velocity in fluorescence increase. To test the effect of flavonoids on PDIA3 activity, the protein stock solution was previously incubated for 15 minutes at room temperature with different concentrations of each flavonoid and then a 20 μl aliquot subjected to assay in a reaction buffer containing the same concentration of the flavonoid.
Fluorescence quenching constant (K SV) values were given as means ± standard deviation and values of disulfide reductase activity were expressed in % of control sample ± relative standard deviation. All measurements were performed at least three times. Dunnett's test was used to compare the obtained reductase activity data with the activity of the untreated protein and a p value of <0.01 was considered as statistically significant.

Row | SMILES | Stern-Volmer constant (K SV) [1] [M⁻¹] | bimolecular quenching rate constant (K q) [1] [M⁻¹ s⁻¹] | Kd [1] [µM] | binding constant (K b) [1] [M⁻¹] | Increase in melting temperature (T m) of PDIA3 [2] | Effect on PDIA3 stability (T m) [2] | Inhibition of disulfide reductase (redox) activity [3] | Effect on disulfide reductase activity (in words) [3]
1 | O=c1c(O)c(-c2ccc(O)c(O)c2)oc2cc(O)ccc12 [Fisetin, fisetin] | 33164 ± 542 | 3.32e+12 | 27.1 | 36700 | increased more than three degrees | – | – | –
2 | COc1cc(-c2oc3cc(O)cc(O)c3c(=O)c2O)ccc1O [Isorhamnetin, isorhamnetin] | 36109 ± 1271 | 3.61e+12 | 30.8 | 32500 | – | similar, but less pronounced, effect | – | –
3 | O=C1C[C@@H](c2ccc(O)cc2)Oc2cc(O)cc(O)c21 [Naringenin, naringenin] | 16900 ± 352 | 1.69e+12 | 57.8 | 17300 | – | – | – | –
4 | O=c1c(O)c(-c2ccc(O)cc2)oc2cc(O)cc(O)c12 [Kaempferol, kaempferol] | 28423 ± 982 | 2.84e+12 | 38.5 | 26000 | increased more than three degrees | – | – | –
5 | O=c1c(O)c(-c2ccc(O)cc2O)oc2cc(O)cc(O)c12 [Morin, morin] | 24063 ± 265 | 2.41e+12 | 39 | 25600 | increased more than three degrees | – | approximately 20% | some inhibitory effect
6 | COc1c(-c2ccc(O)c(O)c2)oc2cc(O)cc(O)c2c1=O [3-O-Methyl-quercetin, 3-O-methyl quercetin] | 41110 ± 794 | 4.11e+12 | 21.9 | 45700 | – | – | – | –
7 | O=c1c(-c2ccc(O)cc2)coc2cc(O)cc(O)c12 [Genistein, genistein] | 22953 ± 435 | 2.3e+12 | 41 | 24400 | – | similar, but less pronounced, effect | – | –
8 | O=c1cc(-c2ccc(O)c(O)c2)oc2cc(O[C@@H]3O[C@H](CO)[C@@H](O)[C@H](O)[C@H]3O)cc(O)c12 [Luteolin-7-glucoside, luteolin-7-glucoside] | 31601 ± 484 | 3.16e+12 | 28.9 | 34600 | – | – | – | –
9 | COc1ccc(-c2cc(=O)c3cc(OC)ccc3o2)c(OC)c1 [Trimethoxyflavone, 6,2′,4′-trimethoxyflavone] | 22209 ± 484 | 2.22e+12 | 55.2 | – | – | – | – | –
10 | C[C@@H]1O[C@@H](OC[C@H]2O[C@@H](Oc3c(-c4ccc(O)c(O)c4)oc4cc(O)cc(O)c4c3=O)[C@H](O)[C@@H](O)[C@@H]2O)[C@H](O)[C@H](O)[C@H]1O [Rutin, rutin] | 45197 ± 465 | 4.52e+12 | 22 | 45500 | – | – | – | –
11 | C[C@@H]1O[C@@H](Oc2c(-c3ccc(O)c(O)c3)oc3cc(O)cc(O)c3c2=O)[C@H](O)[C@H](O)[C@H]1O [Quercitrin, quercitrin] | 29211 ± 483 | 2.92e+12 | 31 | 32300 | – | – | – | –
12 | O=c1c(O[C@@H]2O[C@H](CO)[C@@H](O)[C@H](O)[C@H]2O)c(-c2ccc(O)c(O)c2)oc2cc(O)cc(O)c12 [Isoquercetin, isoquercetin] | 25738 ± 367 | 2.57e+12 | 34.4 | 29100 | – | – | – | –
13 | Oc1cc(O)c2cc(O)c(-c3ccc(O)c(O)c3)[o+]c2c1 [Cyanidin, cyanidin] | 29761 ± 635 | 2.98e+12 | 34.2 | 29300 | – | similar, but less pronounced, effect | approximately 20% | –
14 | O=c1cc(-c2ccc(O)cc2)oc2cc(O[C@@H]3O[C@H](CO)[C@@H](O)[C@H](O)[C@H]3O)cc(O)c12 [Apigenin-7-glucoside, apigenin-7-glucoside] | 43961 ± 673 | 4.4e+12 | 21.1 | 47300 | – | – | – | –
15 | COc1cc(O)c2c(=O)c(O)c(-c3ccc(O)c(O)c3)oc2c1 [Rhamnetin, rhamnetin] | 28462 ± 295 | 2.85e+12 | 33.2 | 30100 | – | similar, but less pronounced, effect | – | –
